Measurements reported in PubChem BioAssay AID1963964 (Molecular Pharmacology Branch, DTP, NCI, 2024).

System: 997726-040-R-J2-PDC tumor spheroids, viability
Assay: Anticancer human tumor 997726-040-R-J2-PDC patient-derived squamous cell lung carcinoma cell line growth inhibition [PI3K]
Settings: spheroids with HUVEC and MSC; for IC50: curve of first compound; for viability, T/C: stronger effect = lower value
Outline: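 Three cell types, namely tumor cells, endothelial cells and mesenchymal stem cells, formed each spheroid. Combinations with four PI3K inhibitors were screened at clinically achievable concentrations decreasing by half-log, and spheroid viability was recorded.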

[1] = second compound 0.0316 µM, first compound 0.0316 µM
[2] = second compound 0.0316 µM, first compound 0.1 µM
[3] = second compound 0.0316 µM, first compound 0.316 µM
[4] = second compound 0.0316 µM, first compound 1 µM
[5] = second compound 0.0316 µM, first compound 3.16 µM
[6] = second compound 0.0316 µM, first compound 10 µM
[7] = second compound 0.1 µM, first compound 0.0316 µM
[8] = second compound 0.1 µM, first compound 0.1 µM
[9] = second compound 0.1 µM, first compound 0.316 µM
[10] = second compound 0.1 µM, first compound 1 µM
[11] = second compound 0.1 µM, first compound 3.16 µM
[12] = second compound 0.1 µM, first compound 10 µM
[13] = second compound 0.316 µM, first compound 0.0316 µM
[14] = second compound 0.316 µM, first compound 0.1 µM
[15] = second compound 0.316 µM, first compound 0.316 µM
[16] = second compound 0.316 µM, first compound 1 µM
[17] = second compound 0.316 µM, first compound 3.16 µM
[18] = second compound 0.316 µM, first compound 10 µM
[19] = second compound 1 µM, first compound 0.0316 µM
[20] = second compound 1 µM, first compound 0.1 µM
[21] = second compound 1 µM, first compound 0.316 µM
[22] = second compound 1 µM, first compound 1 µM
[23] = second compound 1 µM, first compound 3.16 µM
[24] = second compound 1 µM, first compound 10 µM
[25] = second compound 3.16 µM, first compound 0.0316 µM
[26] = second compound 3.16 µM, first compound 0.1 µM
[27] = second compound 3.16 µM, first compound 0.316 µM
[28] = second compound 3.16 µM, first compound 1 µM
[29] = second compound 3.16 µM, first compound 3.16 µM
[30] = second compound 3.16 µM, first compound 10 µM
[31] = second compound 10 µM, first compound 0.0316 µM
[32] = second compound 10 µM, first compound 0.1 µM
[33] = second compound 10 µM, first compound 0.316 µM
[34] = second compound 10 µM, first compound 1 µM
[35] = second compound 10 µM, first compound 3.16 µM
[36] = second compound 10 µM, first compound 10 µM
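Also: spheroids exposed to compounds for seven days before readout.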

Compound: CC(Cn1ccc(-c2ccc(C#N)c(Cl)c2)n1)NC(=O)c1cc(C(C)O)[nH]n1 (stereo unspecified) + Cc1nc(NC(=O)N2CCCC2C(N)=O)sc1-c1ccnc(C(C)(C)C(F)(F)F)c1
- IC50 (second compound 0.0316 µM): > 10 µM
- IC50 (second compound 0.1 µM): > 10 µM
- IC50 (second compound 0.316 µM): > 10 µM
- IC50 (second compound 1 µM): < 0.0316 µM
- IC50 (second compound 3.16 µM): < 0.0316 µM
- IC50 (second compound 10 µM): < 0.0316 µM
- viability, T/C [1]: 88.7%
- viability, T/C [2]: 92.7%
- viability, T/C [3]: 90.5%
- viability, T/C [4]: 95.7%
- viability, T/C [5]: 86.2%
- viability, T/C [6]: 86%
- viability, T/C [7]: 76%
- viability, T/C [8]: 74.3%
- viability, T/C [9]: 80.2%
- viability, T/C [10]: 74.3%
- viability, T/C [11]: 78.9%
- viability, T/C [12]: 72.1%
- viability, T/C [13]: 62.5%
- viability, T/C [14]: 53.5%
- viability, T/C [15]: 59.5%
- viability, T/C [16]: 57.5%
- viability, T/C [17]: 58.9%
- viability, T/C [18]: 54%
- viability, T/C [19]: 45%
- viability, T/C [20]: 44.7%
- viability, T/C [21]: 47.3%
- viability, T/C [22]: 39.8%
- viability, T/C [23]: 43.1%
- viability, T/C [24]: 41.8%
- viability, T/C [25]: 29.4%
- viability, T/C [26]: 27.1%
- viability, T/C [27]: 32%
- viability, T/C [28]: 33.4%
- viability, T/C [29]: 30.6%
- viability, T/C [30]: 26.7%
- viability, T/C [31]: 15.4%
- viability, T/C [32]: 14.6%
- viability, T/C [33]: 16.2%
- viability, T/C [34]: 15.1%
- viability, T/C [35]: 14.4%
- viability, T/C [36]: 9.85%

Compound: Cn1ncc(Cl)c1-c1cc(C(=O)NC(CN)Cc2cccc(F)c2)sc1Cl (stereo unspecified) + Cc1nc(NC(=O)N2CCCC2C(N)=O)sc1-c1ccnc(C(C)(C)C(F)(F)F)c1
- IC50 (second compound 0.0316 µM): 0.0967 µM
- IC50 (second compound 0.1 µM): 0.0774 µM
- IC50 (second compound 0.316 µM): 0.0321 µM
- IC50 (second compound 1 µM): < 0.0316 µM
- IC50 (second compound 3.16 µM): < 0.0316 µM
- IC50 (second compound 10 µM): < 0.0316 µM
- viability, T/C [1]: 68%
- viability, T/C [2]: 49.7%
- viability, T/C [3]: 23.7%
- viability, T/C [4]: 11.6%
- viability, T/C [5]: 9.66%
- viability, T/C [6]: 5.52%
- viability, T/C [7]: 65.4%
- viability, T/C [8]: 45.7%
- viability, T/C [9]: 25%
- viability, T/C [10]: 13%
- viability, T/C [11]: 9.73%
- viability, T/C [12]: 6.2%
- viability, T/C [13]: 50%
- viability, T/C [14]: 37.7%
- viability, T/C [15]: 22.5%
- viability, T/C [16]: 11.7%
- viability, T/C [17]: 9.53%
- viability, T/C [18]: 3.13%
- viability, T/C [19]: 39.9%
- viability, T/C [20]: 35.2%
- viability, T/C [21]: 21.6%
- viability, T/C [22]: 11.3%
- viability, T/C [23]: 8.3%
- viability, T/C [24]: 2.53%
- viability, T/C [25]: 25.3%
- viability, T/C [26]: 22.5%
- viability, T/C [27]: 13.9%
- viability, T/C [28]: 10%
- viability, T/C [29]: 6.18%
- viability, T/C [30]: 1.9%
- viability, T/C [31]: 15%
- viability, T/C [32]: 11.3%
- viability, T/C [33]: 7.08%
- viability, T/C [34]: 4.6%
- viability, T/C [35]: 3.71%
- viability, T/C [36]: 1.05%

Compound: Cn1nccc1Nc1nccc(-c2ccn(C(CO)c3ccc(Cl)c(F)c3)c(=O)c2)n1 (stereo unspecified) + Cc1nc(NC(=O)N2CCCC2C(N)=O)sc1-c1ccnc(C(C)(C)C(F)(F)F)c1
- IC50 (second compound 0.0316 µM): 6.27 µM
- IC50 (second compound 0.1 µM): 0.307 µM
- IC50 (second compound 0.316 µM): 0.0599 µM
- IC50 (second compound 1 µM): < 0.0316 µM
- IC50 (second compound 3.16 µM): < 0.0316 µM
- IC50 (second compound 10 µM): < 0.0316 µM
- viability, T/C [1]: 72.8%
- viability, T/C [2]: 72.3%
- viability, T/C [3]: 63.3%
- viability, T/C [4]: 65.4%
- viability, T/C [5]: 55%
- viability, T/C [6]: 46.1%
- viability, T/C [7]: 64.7%
- viability, T/C [8]: 75.7%
- viability, T/C [9]: 48.3%
- viability, T/C [10]: 52%
- viability, T/C [11]: 49.3%
- viability, T/C [12]: 48.1%
- viability, T/C [13]: 55.4%
- viability, T/C [14]: 44.4%
- viability, T/C [15]: 43%
- viability, T/C [16]: 34.9%
- viability, T/C [17]: 38.7%
- viability, T/C [18]: 33%
- viability, T/C [19]: 41.9%
- viability, T/C [20]: 36.8%
- viability, T/C [21]: 32.7%
- viability, T/C [22]: 30.2%
- viability, T/C [23]: 28%
- viability, T/C [24]: 23.3%
- viability, T/C [25]: 29.8%
- viability, T/C [26]: 27.7%
- viability, T/C [27]: 23.2%
- viability, T/C [28]: 28.3%
- viability, T/C [29]: 27%
- viability, T/C [30]: 16.1%
- viability, T/C [31]: 17.1%
- viability, T/C [32]: 12.8%
- viability, T/C [33]: 15.8%
- viability, T/C [34]: 14.3%
- viability, T/C [35]: 17.2%
- viability, T/C [36]: 7.87%
